The values below come from the supplement of paper PMC10307832.

Holding throughout (assay): relative viability (nuclei count vs DMSO), 5 days (fraction); higher = more cells survive
Compound in test [1]: O=c1ncccn1[C@@H]1O[C@H](CO)[C@@H](O)[C@H]1O [Zebularine] + CCNC(=O)c1noc(-c2cc(C(C)C)c(O)cc2O)c1-c1ccc(CN2CCOCC2)cc1 [Luminespib] (partner 0.01 µM)
In a few lines: (§1)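 Five library-drug doses in √10 steps were combined with a fixed anchor-drug dose, or a single drug was given alone, by pin tool to lung cancer cell lines in 1536-well plates the day after seeding. Nuclei were stained and counted after 5 days. Relative viability is the nuclei count in treated wells over that in vehicle wells, taken as the median of duplicate plates.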

Compound in test [2]: O=c1ncccn1[C@@H]1O[C@H](CO)[C@@H](O)[C@H]1O [Zebularine] + N=C(N)NC(=N)NCCc1ccccc1 [Phenformin] (partner 250 µM)
The method in brief: as §1

Compound in test [3]: CC(C)CCN1c2nc(Nc3cc(F)c(O)c(F)c3)ncc2N(C)C(=O)C1C [BI-D1870] + CS(=O)(=O)CCNCc1ccc(-c2ccc3ncnc(Nc4ccc(OCc5cccc(F)c5)c(Cl)c4)c3c2)o1 [Lapatinib] (partner 2 µM)
The method in brief: as §1

Compound in test [4]: O=c1ncccn1[C@@H]1O[C@H](CO)[C@@H](O)[C@H]1O [Zebularine] + CC(=O)c1c(C)c2cnc(Nc3ccc(N4CCNCC4)cn3)nc2n(C2CCCC2)c1=O [Palbociclib] (partner 0.5 µM)
In a few lines:
as §1

Regarding NCI-H2405, the relative viability was 0.705 in test [1] (first compound 1 µM); 0.779 in test [1] (first compound 3.162 µM); 0.651 in test [1] (first compound 10 µM); 0.797 in test [1] (first compound 31.62 µM); 0.498 in test [1] (first compound 100 µM); 0.425 in test [2] (first compound 1 µM). Further, the relative viability in test [2] (first compound 3.162 µM) amounted to 0.378; in test [2] (first compound 10 µM), 0.352; in test [2] (first compound 31.62 µM) it was 0.435; in test [2] (first compound 100 µM), 0.335; in test [3] (first compound 0.04 µM) it was 1.16; in test [3] (first compound 0.1265 µM) it was 1.03. Also, the relative viability amounted to 1.05 in test [3] (first compound 0.4 µM); 1.32 in test [3] (first compound 1.265 µM); 1.1 in test [3] (first compound 4 µM); 0.524 in test [4] (first compound 1 µM); 0.533 in test [4] (first compound 3.162 µM); 0.478 in test [4] (first compound 10 µM). In addition, the relative viability in test [4] (first compound 31.62 µM) is 0.509; in test [4] (first compound 100 µM), 0.435.
Consider NCI-H322M, for which the relative viability came out at 0.905 in test [1] (first compound 1 µM); 0.992 in test [1] (first compound 3.162 µM); 0.707 in test [1] (first compound 10 µM); 0.703 in test [1] (first compound 31.62 µM); 0.662 in test [1] (first compound 100 µM); 0.816 in test [2] (first compound 1 µM). Besides, the relative viability in test [2] (first compound 3.162 µM) turned out to be 0.747; in test [2] (first compound 10 µM), 0.568; in test [2] (first compound 31.62 µM), 0.73; in test [2] (first compound 100 µM), 0.671; in test [3] (first compound 0.04 µM), 0.605; in test [3] (first compound 0.1265 µM), 0.535. The relative viability stood at 0.598 in test [3] (first compound 0.4 µM); 0.529 in test [3] (first compound 1.265 µM); 0.559 in test [3] (first compound 4 µM); 0.467 in test [4] (first compound 1 µM); 0.486 in test [4] (first compound 3.162 µM); 0.471 in test [4] (first compound 10 µM). Further, the relative viability in test [4] (first compound 31.62 µM) was determined as 0.463; in test [4] (first compound 100 µM) it was 0.496.
Regarding NCI-H2170, the relative viability was found to be 1.07 in test [1] (first compound 1 µM); 0.942 in test [1] (first compound 3.162 µM); 0.223 in test [1] (first compound 10 µM); 0.689 in test [1] (first compound 31.62 µM); 0.272 in test [1] (first compound 100 µM); 0.422 in test [2] (first compound 1 µM). The relative viability in test [2] (first compound 3.162 µM) was 0.424; in test [2] (first compound 10 µM), 0.376; in test [2] (first compound 31.62 µM), 0.41; in test [2] (first compound 100 µM) it was 0.243; in test [3] (first compound 0.04 µM), 0.309; in test [3] (first compound 0.1265 µM), 0.238. Besides, the relative viability came to 0.278 in test [3] (first compound 0.4 µM); 0.275 in test [3] (first compound 1.265 µM); 0.234 in test [3] (first compound 4 µM); 0.415 in test [4] (first compound 1 µM); 0.351 in test [4] (first compound 3.162 µM); 0.366 in test [4] (first compound 10 µM). In addition, the results for the relative viability in test [4] (first compound 31.62 µM) and in test [4] (first compound 100 µM) were 0.404 and 0.283, respectively.
Consider NCI-H1395, for which the relative viability was 0.564 in test [1] (first compound 1 µM); 0.666 in test [1] (first compound 3.162 µM); 0.456 in test [1] (first compound 10 µM); 0.536 in test [1] (first compound 31.62 µM); 0.372 in test [1] (first compound 100 µM); 0.455 in test [2] (first compound 1 µM). The relative viability in test [2] (first compound 3.162 µM) turned out to be 0.454; in test [2] (first compound 10 µM), 0.398; in test [2] (first compound 31.62 µM) it was 0.361; in test [2] (first compound 100 µM), 0.372; in test [3] (first compound 0.04 µM), 1.13; in test [3] (first compound 0.1265 µM), 0.895. In addition, the relative viability in test [3] (first compound 0.4 µM) was 0.989; in test [3] (first compound 1.265 µM), 1.13; in test [3] (first compound 4 µM), 0.79; in test [4] (first compound 1 µM), 0.664; in test [4] (first compound 3.162 µM), 0.659; in test [4] (first compound 10 µM) it was 0.621. Besides, the relative viability in test [4] (first compound 31.62 µM) was determined as 0.512; in test [4] (first compound 100 µM), 0.518.
Take NCI-H358: the relative viability in test [1] (first compound 1 µM) worked out at 0.355; in test [1] (first compound 3.162 µM), 0.462; in test [1] (first compound 10 µM), 0.251; in test [1] (first compound 31.62 µM), 0.269; in test [1] (first compound 100 µM), 0.184; in test [2] (first compound 1 µM), 0.354. The relative viability in test [2] (first compound 3.162 µM) stood at 0.261; in test [2] (first compound 10 µM) it was 0.209; in test [2] (first compound 31.62 µM), 0.227; in test [2] (first compound 100 µM), 0.154; in test [3] (first compound 0.04 µM), 0.501; in test [3] (first compound 0.1265 µM), 0.413. In addition, the relative viability in test [3] (first compound 0.4 µM) worked out at 0.551; in test [3] (first compound 1.265 µM), 0.504; in test [3] (first compound 4 µM), 0.556; in test [4] (first compound 1 µM), 0.213; in test [4] (first compound 3.162 µM) it was 0.128; in test [4] (first compound 10 µM), 0.134. The values for the relative viability in test [4] (first compound 31.62 µM) and in test [4] (first compound 100 µM) were 0.131 and 0.132, respectively.
On to NCI-H838, for which the relative viability is 0.299 in test [1] (first compound 1 µM); 0.312 in test [1] (first compound 3.162 µM); 0.276 in test [1] (first compound 10 µM); 0.243 in test [1] (first compound 31.62 µM); 0.228 in test [1] (first compound 100 µM); 0.695 in test [2] (first compound 1 µM). The relative viability is 0.668 in test [2] (first compound 3.162 µM); 0.549 in test [2] (first compound 10 µM); 0.509 in test [2] (first compound 31.62 µM); 0.285 in test [2] (first compound 100 µM); 1.13 in test [3] (first compound 0.04 µM); 0.942 in test [3] (first compound 0.1265 µM). For the same cell line, the relative viability turned out to be 1.1 in test [3] (first compound 0.4 µM); 1.24 in test [3] (first compound 1.265 µM); 1.02 in test [3] (first compound 4 µM); 0.222 in test [4] (first compound 1 µM); 0.257 in test [4] (first compound 3.162 µM); 0.223 in test [4] (first compound 10 µM). Also, the relative viability in test [4] (first compound 31.62 µM) amounted to 0.238; in test [4] (first compound 100 µM) it was 0.219.
On to CAL-12T, for which the relative viability in test [1] (first compound 1 µM) stood at 0.49; in test [1] (first compound 3.162 µM), 0.717; in test [1] (first compound 10 µM), 0.244; in test [1] (first compound 31.62 µM), 0.355; in test [1] (first compound 100 µM), 0.582; in test [2] (first compound 1 µM), 0.569. For the same cell line, the relative viability in test [2] (first compound 3.162 µM) came to 0.464; in test [2] (first compound 10 µM), 0.535; in test [2] (first compound 31.62 µM) it was 0.583; in test [2] (first compound 100 µM) it was 0.391; in test [3] (first compound 0.04 µM), 0.799; in test [3] (first compound 0.1265 µM), 0.672. In addition, the relative viability in test [3] (first compound 0.4 µM) was 0.664; in test [3] (first compound 1.265 µM) it was 1.03; in test [3] (first compound 4 µM) it was 0.539; in test [4] (first compound 1 µM) it was 0.474; in test [4] (first compound 3.162 µM), 0.423; in test [4] (first compound 10 µM) it was 0.409. Further, the relative viability in test [4] (first compound 31.62 µM) was determined as 0.557; in test [4] (first compound 100 µM), 0.353.
